Earlier results as cited in patent US5965741A, “Ortho-substituted aromatic ether compounds and their use in pharmaceutical compositions for pain relief” (Zeneca Limited, priority 1994, dated 1999).

Test system: EP1 receptors
Conditions: guinea pig ileum or dog fundus

For `CC(=O)NNC(=O)N1Cc2ccccc2Oc2ccc(Cl)cc21` [SC-19220], the “block of the effect of PGE2” value is given as “blocks the effect of PGE2”.
